Data taken from ChEMBL document CHEMBL3507680, “University of Dundee, Gates Library screen for HepG2 cell viability”.

assay: Human HepG2 cell viability assay in 384 well format; format: toxicity, cell-based; design: dose 125 nL, time 70.5 hour; concentration not given beside the values; settings: HepG2 cells, read-out: Inhibition

Row | Compound | cytotoxicity at 70.5 h
1 | Cc1cccc(SC2CCN(Cc3nc(CC4CC4)no3)CC2)c1 | 0.0623%
2 | CCOC(=O)C1CCCCN1Cc1c[nH]nc1-c1ccc(F)cc1F (configuration not stated) | -7.54%
3 | Cc1nc(C2CCCNC2)cc(N(C)CCc2ccccc2)n1 (configuration not stated) | 20.6%
4 | CC(C)(C)c1cn(C2CCN(C(=O)c3cnccn3)CC2)nn1 | -13.1%
5 | CN(CCCc1cnn(C)c1)Cc1cc2n(n1)CCCN(C)C2 | -7.1%
6 | COc1cc2ncn(Cc3ncc[nH]3)c(=O)c2cc1OC | -23.4%
7 | O=C(O)c1ccnc(-c2ccnc(COc3ccc(Cl)cc3)n2)c1 | -9.69%
8 | Cc1ccccc1Oc1ncccc1CNC(=O)Cn1cccnc1=O | 3.17%
9 | COc1cccc(OCC2CCCN(C(=O)CCn3ccnc3)C2)c1 (configuration not stated) | 11.7%
10 | CCc1nc(N2CCCC(CO)(CCOC)C2)ncc1C (configuration not stated) | -7.73%
11 | Cc1ncsc1CCC(=O)N(C)Cc1nc2ccccc2n1C | -1.06%
12 | O=C(c1ccc(Cn2cnnn2)cc1)N1CCC(c2ccncc2)CC1 | -3.04%
13 | CC(C)N1CC(C(=O)N2CCc3c(nc(CC4CC4)[nH]c3=O)C2)CC1=O (configuration not stated) | -2.23%
14 | CCCN1CCC(CC(=O)N(C)C(C)c2cncs2)CC1 (configuration not stated) | -16.1%
15 | CCOC(=O)c1ccc(N2CCN(Cc3c(C)nn(C)c3Cl)CC2)nc1 | 12.7%
16 | CO[C@H]1C[C@@H](O)C12CCN(Cc1nc(C(F)(F)F)no1)CC2 | -10.9%
17 | Cc1noc(C)c1CCCNc1cnccn1 | -16.9%
18 | CC(C)CN1CC2(CCN(C(=O)C(O)c3ccccc3Cl)CC2)CC1=O (configuration not stated) | -5.68%
19 | CCc1ccccc1-c1cc(C)nc(N)n1 | -7.75%
20 | COCc1cc(CNCc2c(C)n(CC(N)=O)c3ccccc23)n[nH]1 | -9.7%
21 | Cc1cc(N2CCN(C(=O)Cc3c(C)nc(C)[nH]c3=O)CC2)cc(C)n1 | 18.5%
22 | CCc1ccc(CN2CCC(c3ccccc3C(=O)O)C2)nc1 (configuration not stated) | -13.9%
23 | COc1ccccc1Oc1ncccc1CNC(=O)C(C)CN (configuration not stated) | -9.25%

Row | Compound | cytotoxicity at 70.5 h
24 | CCc1nc(C)c([C@H]2CN(C)C[C@@H]2C(=O)Nc2cccc3cn[nH]c23)[nH]1 | -5.72%
25 | CCCn1cc(-c2cc(-c3cc(CC)n[nH]3)c(C#N)c(N)n2)c(C)n1 | -3.18%
26 | O=C(CN1CCCCCC1)NCc1ccc2[nH]c(=O)[nH]c2c1 | -8.16%
27 | COc1cc(C(=O)N2C[C@H]3CC[C@@H]2CN(Cc2cscn2)C3)ccn1 | -22.3%
28 | O=C(CCc1cn[nH]c1)N1C[C@@H](CN2CCOCC2)C[C@H](CO)C1 | 8.69%
29 | Cc1nc(C(C)C)sc1C(=O)N1CCC(N2CCSCC2)CC1 | -12.7%
30 | CCN(Cc1cn(C)nc1-c1ccc2c(c1)OCCO2)CC1CCCO1 (configuration not stated) | -6.76%
31 | CCc1noc(CN2C[C@H]3CC[C@@H]2CN(C2Cc4ccccc4C2)C3)n1 | 4.55%
32 | CCc1cc(N2CCN(c3ccc(Cl)cn3)CC2)n2nccc2n1 | -1.55%
33 | Cn1cc(C(=O)N2CCC(c3nccn3Cc3ccncc3)CC2)cn1 | -7.19%
34 | COc1ccc2cc(CN(C)CCN3CCCCC3=O)c(=O)[nH]c2c1 | -12.2%
35 | CC(C)c1nc(CN(C)Cc2ccc(O)c(C(=O)O)c2)cs1 | -4.7%
36 | O=C(CCc1cc2n(n1)CCN(CCCn1cccc1)C2)N1CCCC1 | -10.4%
37 | O=C(Cc1ccc(CO)cc1)N1CCN(c2ccccc2Cl)C(=O)C1 | -9.48%
38 | CS(=O)(=O)c1cnc(C2CCCC2)nc1C1CCCNC1 (configuration not stated) | 1.49%
39 | CCCOCC(=O)N1CCCC(c2nnc(CN3CCCCC3)n2C)C1 (configuration not stated) | 9.63%
40 | Cc1ccc(N2CCC(C3CCN(CC(C)C)CC3)C2)nn1 (configuration not stated) | -6.28%
41 | CCc1cnc(N2Cc3cnc(C(C)(C)C)nc3C2)nc1 | -3.57%
42 | COc1ccc(-c2cc(C3CCOC3)c(C#N)c(N)n2)cn1 (configuration not stated) | 18.9%
43 | Cn1ccnc1-c1cn(CCc2nnc(N)s2)nn1 | 43.6%
44 | CCn1c(C2CCNCC2)nn(CCn2cncn2)c1=O | -6.69%
45 | Cc1cncc(C(=O)N2CCNCC2C(=O)NCc2ccncc2)c1 (configuration not stated) | -1.53%
46 | O=C(CNc1cc(-c2ccccc2)nc2ccnn12)NC1CC1 | -0.964%

Row | Compound | cytotoxicity at 70.5 h
47 | COc1ccc(C)cc1-n1cnnc1C1CCCN(C)C1 (configuration not stated) | 9.2%
48 | CN(Cc1cccc2ncccc12)C(=O)CCn1ccc(=O)[nH]c1=O | -1.13%
49 | Cc1nc(N(C)C)nc(NCCc2cnccn2)c1C | -1.68%
50 | O=S(=O)(CC1CC1)c1ncc(CN2CCOCC2)n1CC1CCCO1 (configuration not stated) | -0.667%
51 | c1cc(CN2CCCN(c3ccc4cc[nH]c4n3)CC2)ccn1 | -1.4%
52 | CCCc1nnc(N(C)CC2CCCN(CC)C2)o1 (configuration not stated) | 15.4%
53 | Cc1c(C2c3nc[nH]c3CCN2CCOCc2ccccc2)cnn1C (configuration not stated) | -10.4%
54 | CCN(Cc1c(F)cccc1Cl)c1cc(C2CCNCC2)nc(C)n1 | 2.62%
55 | CCCc1ccc(CN2CCN(C(=O)N(C)C)[C@@H]3CS(=O)(=O)C[C@@H]32)o1 | -10.7%
56 | CCc1ccc2ncn(Cc3ncc[nH]3)c(=O)c2c1 | -18.6%
57 | CC(C)Cc1ncc2c(n1)CN(C(=O)Cn1c(=O)oc3ccccc31)C2 | -14.5%
58 | CC(Cn1ccnc1)NCc1ccc2nonc2c1 (configuration not stated) | -2.31%
59 | CCc1ncc2c(n1)CN(c1cc(N3CCN(C)CC3)nc(N)n1)C2 | 25%
60 | Cc1cccc2[nH]c(C3CCN(C(=O)c4ccc[nH]4)CC3)nc12 | -6.62%
61 | Cc1nc(CNCc2cccnc2Oc2ccc(C)c(F)c2F)c[nH]1 | 0.762%
62 | CN(CCN1CCCCCC1)C(=O)c1cc(CN2CCCC(O)C2)on1 (configuration not stated) | -10.1%
63 | COCCN(C/C=C/c1ccccc1)Cc1ncc[nH]1 | -5.41%
64 | c1ccc(Cc2noc(-c3ccc(NCC4CCCOC4)nc3)n2)cc1 (configuration not stated) | -2.44%
65 | COc1ccc2c(C)c(C(=O)NCCCc3csc(N)n3)oc2c1 | 8.41%
66 | CC(=O)N1CCCn2nc(CNS(=O)(=O)N3CCC(C)CC3)cc2C1 | -11.6%
67 | CCn1nc(C)c(NC(=O)CN2CC[C@@H](F)C2)c1C | -4.28%
68 | NC(=O)NCC(=O)N1C[C@H]2CC[C@@H]1CN(Cc1cscn1)C2 | 9.8%
69 | O=C(N[C@@H]1CCN(C(=O)c2ccc(F)cc2Cl)C[C@H]1O)c1ccccn1 | -6.49%

Row | Compound | cytotoxicity at 70.5 h
70 | Cc1nn2cc(CNc3nccc(CCC(F)(F)F)n3)nc2s1 | -9.54%
71 | COCc1cc(CNC(=O)c2c(C)c(C)cc(C)c2C)n[nH]1 | -4.32%
72 | CCOc1cccc(C(=O)N2CCCn3nc(CCC(=O)O)cc3C2)c1 | -5.68%
73 | COc1ccc(CN2CCCC3(CC2)CNC(=O)O3)cc1OC (configuration not stated) | 12.1%
74 | Cc1ccccc1-n1cc(C2=CCN(CCN3CCOCC3)CC2)cn1 | 12.8%
75 | COc1cccc(-c2noc(-c3ccc(NCC(C)C)nc3)n2)c1OC | -2.74%
76 | COCCc1noc(CN2CCC(c3ccccc3C(=O)O)C2)n1 (configuration not stated) | -20.1%
77 | Cc1nc2c(c(NCC3Cc4ccccc4CN3C)n1)CCNCC2 (configuration not stated) | -8.03%
78 | Cc1nc(C(=O)N(Cc2c(C)nn(C)c2C)C(C)C)cs1 | -0.883%
79 | CC(C)c1noc(C2CCCN2S(=O)(=O)N2CCCCCC2)n1 (configuration not stated) | -6.79%
80 | Cc1nccc(NCc2cc3n(n2)CCCN(S(C)(=O)=O)C3)n1 | -3.08%
81 | CN(Cc1noc2c1CCCC2)C(=O)Nc1cccc(S(N)(=O)=O)c1 | 17.1%
82 | COc1ccc(-n2nc(C(C)C)nc2COC(C)C)cc1 | 20.2%
83 | CCn1c(C)nnc1SCCn1cc(-c2ncc[nH]2)nn1 | -5.72%
84 | O=C(O)c1ccnc(-c2ccnc(N3CCC4(CCO4)CC3)n2)c1 | -11.6%
85 | Cc1cccc(N2CCC(N3CCCC4(CNC(=O)O4)C3)CC2)c1C (configuration not stated) | -7.33%
86 | CCCn1ccnc1CN1CCCC(CC)(CO)C1 (configuration not stated) | 26.9%
87 | COCCC1(CO)CCCN(C(=O)CCC(F)(F)F)C1 (configuration not stated) | -10.8%
88 | c1ccc(NCCn2cc(C3CCCNC3)nn2)cc1 (configuration not stated) | -3.12%
89 | N#CC1(C(=O)N2C[C@H](Nc3ccnc(N)n3)[C@@H](C3CC3)C2)CCOCC1 | -3.81%
90 | CC(C)C1CN(C(=O)c2csc(CN(C)C)n2)CCC(=O)N1CC1CC1 (configuration not stated) | -10.8%
91 | Cc1nc(C(C)C)sc1C(=O)N(C)CCCc1cnn(C)c1 | -7.28%
92 | Cc1ncc2c(c1CNC(=O)C1(C)CCCO1)CCNC2 (configuration not stated) | -7.21%

Row | Compound | cytotoxicity at 70.5 h
93 | CCCc1nc(N2CCCN3CCC[C@H]3C2)c2cnn(C)c2n1 | 15.2%
94 | COC(=O)CCNC(=O)c1coc(COc2ccc(F)cc2)n1 | -5.99%
95 | NC1(C(=O)NCC2CCCN(Cc3ccccc3F)C2)CCCC1 (configuration not stated) | -1.04%
96 | CCn1nc(C)c(C(=O)N2C[C@@H](CN(C)C)[C@@H](CO)C2)c1C | 0.473%
97 | CC1(Cc2ccc3c(c2)OCO3)CCCN(S(=O)(=O)N2CCOCC2)C1 (configuration not stated) | -6.32%
98 | O=S(=O)(NCc1ccccc1)NCc1nc(-c2ccncc2)n[nH]1 | -5.68%
99 | COCc1cc(CNC(=O)c2cc(NC(C)=O)ccc2Cl)n[nH]1 | -6.43%
100 | COC(=O)CCC(=O)N(C/C=C/c1ccccc1)CCO | 23.1%
101 | Cc1nc(N2CCCC(OCc3ccccn3)C2)c2c(C)noc2n1 (configuration not stated) | -9.19%
102 | FC(F)Oc1ccccc1CN1CCCC(c2nccn2CC2CC2)C1 (configuration not stated) | -1.02%
103 | CCNc1ccnc(NC2CCN(CC(N)=O)CC2)n1 | 14%
104 | COc1coc(CN2CCCC3(CCC(=O)N(CC4CC4)C3)C2)cc1=O (configuration not stated) | -8.43%
105 | Cc1nsc(NC(=O)NC2(CN3CCOCC3)CCCCC2)n1 | 1.42%
106 | OC1CCN(CCCn2ccnc2-c2c[nH]cn2)CC1 | -5.95%
107 | CC(C)(O)CCc1ccc(C(=O)N2CCN(CC(F)(F)F)CC2)cc1 | 3.68%
108 | Cc1nc(-c2cccc(N3CCC(N4CCCC(C#N)C4)CC3)c2)cs1 (configuration not stated) | 22.1%
109 | Cc1cnc(C)c(N2CC[C@H](N3CCOCC3)[C@H](CCCO)C2)n1 | -9.88%
110 | Cc1cccnc1N1CCN(C(=O)C(C)n2ccnc2C(C)C)CC1 (configuration not stated) | -2.78%
111 | O=C1NCC2(CCCN(C(=O)CCn3cnc4ccccc43)CC2)O1 (configuration not stated) | -1.01%
112 | Cc1ncccc1OC1(C(=O)NCCc2ccccn2)CCNCC1 | 13.7%
